According to patent publication US20190070128A1, “USE OF CANNABIDIVARIN IN THE TREATMENT OF AUTISM SPECTRUM DISORDER, ASSOCIATED DISORDERS AND SCHIZOPHRENIA” (GW Research Limited, priority 2016, published 2019):

Key:
[1] = test system: PCP-treated rats; details: rat, in vivo; cited from earlier work
[2] = test system: PCP-treated rats; assay: novel object recognition test in sub-chronic PCP treated rats; format: in vivo, rat; details: PCP rats; CBDV 2, 10 or 20 mg/kg i.p., risperidone 0.1 mg/kg i.p., 60 min prior to testing
Experimental: (§1) Female hooded-Lister rats were used for this experiment. Rats were housed in groups of 5 under standard laboratory conditions under a 12 hr light: dark cycle, lights on at 0700 hr. Testing was carried out in the light phase.
(§2) Rats were randomly assigned to two treatment groups and treated with vehicle, n=20 (distilled water, i.p.) or Phencyclidine hydrochloride (PCP), n=100 (2 mg/kg, i.p. twice daily for 7-days). PCP was dissolved in distilled water. This was followed by a 7-day wash out period before the rats were tested following acute treatment with CBDV, risperidone or vehicle.
(§3) Risperidone (0.1 mg/kg) was dissolved in a minimum volume of acetic acid, made up to volume with distilled water and pH adjusted to 6 with 0.1M NaOH and administered via the i.p. route in a volume of 1 ml/kg, 60 min prior to testing.
(§4) CBDV at 2, 10 or 20 mg/kg was dissolved in 2:1:17 (Ethanol:Cremofor:Saline 0.9%) and administered via the i.p. route in a volume of 5 ml/kg, 60 min prior to testing.
Rats were allowed to habituate to the empty test box and the behavioural test room environment for 1 h on day 1. Prior to behavioural testing on day 2 rats are given a further 3 min habituation.
Following the 3 min habituation period, the rats are given two 3 min trials (T1 and T2) which are separated by a 1 min inter-trial interval in the home cage during which the objects are changed. Behaviour in all trials was recorded on video for subsequent blind scoring.
In this trial, the animals are allowed to explore two identical objects (A1 and A2) for 3 min.
In this trial, the animals explore a familiar object (A) from T1 and a novel object (B) for 3 min. The familiar object presented during T2 is a duplicate of the object presented in T1 in order to avoid any olfactory trails.
The object exploration is defined by animals licking, sniffing or touching the object with the forepaws whilst sniffing, but not leaning against, turning around, standing or sitting on the object. The exploration time (s) of each object (A, B, familiar and novel) in each trial are recorded using two stopwatches and the following factors are calculated: • Total exploration time of both objects in the acquisition trial (s). • Total exploration time of both objects in the retention trial (s). • Habituation of exploratory activity includes the exploration time, as measured by the number of lines crossed, for both the trials. • Discrimination index (DI), which is calculated as shown below: […]

[3] = test system: PCP-treated rats; assay: social interaction test in sub-chronic PCP treated rats; format: in vivo, rat
Experimental: as §1, §2, §3, §4
The social interaction test is performed in an open-field comprising a square box made of Plexiglas (52×52×31 cm) placed 27 cm above the floor on a moveable trolley. The floor of the box is white with black gridlines forming 9 identical squares on it. All other walls are black. A video camera connected to a video recorder and monitor is positioned above the box. The object used for the test consists of a heavy structure made of metal that cannot be displaced by the animals.
The rats were habituated to the test environment and arena prior to the test day. Habituation consists of placing all rats from one cage together in the empty test arena for one hour for three days including the day before the test day.
Pairs of rats, weight matched (15-20 g) and unfamiliar to each other, receiving either no treatment (n=70 “conspecific” rats) or different treatments (PCP and Vehicle; n=10 “tested” rats or PCP+Drug; n=50 “tested” rats) were placed in the test arena together for 10 min and behaviour assessed as described below.
An inanimate object such as an unopened drinks can is also placed in the centre of the arena to measure any differences in interaction of the test animal with an unfamiliar animal as opposed to an unfamiliar object. After each 10 minute trial, the object and arena are cleaned with 10% alcohol in an attempt to remove traces of any olfactory cues. All testing is carried out under standard room illumination levels (70 cd/m2).
Behaviour in both trials was recorded on video for subsequent blind scoring. A behavioural scoring software program (Hindsight, Scientific programming services) is used to score the following parameters: • Investigative sniffing behaviour: sniffing the conspecific's snout or parts of the body including the anogenital region; • Following: rat moves after the conspecific i.e. a vehicle treated rat of the same species, around the arena; • Avoidances: actively turning away when approached by the conspecific animal; • Investigation of object: exploration of object placed in centre of the arena; and • Locomotor activity is recorded by counting the total number of sectors (i.e. lines) crossed by the test rat.

Cc1nc2n(c(=O)c1CCN1CCC(c3noc4cc(F)ccc34)CC1)CCCC2 [risperidone, reference compound]
PCP-induced deficit in the novel object recognition test [1]: attenuate | preference between two identical objects, Trial 1 (acquisition) [2]: no real preference | PCP effects on social interaction (sniffing, following, avoiding) [3]: reverse these effects in a statistically significant manner | time spent following the other rat ([3]; risperidone 0.1 mg/kg, time increased over PCP alone group): not seen to be significant
